The source of these data is patent US20260132128A1, “COMPOUND FOR RECOVERING P53 MUTATION FUNCTION AND USE THEREOF” (SHENZHEN ZHONGGE BIOLOGICAL TECHNOLOGY CO., LTD., priority 2022, published 2026).

One assay deals with BxPC-3 cells. The assay is described as follows: BxPC-3 cell proliferation test (CTG). In kind it is cell-based. As to conditions: Homo sapiens, 144 h, 6 days. The method, then:
To detect the inhibitory effects of the aforementioned compounds on the proliferation ability of BxPC-3 cells, 125 BxPC-3 cells (ATCC®CRL-1687) were seeded into a 384-well plate (Corning 3765), 35 μL per well, and placed in a constant temperature incubator at 37° C. and 5% CO2 overnight. Then, 40 nL of the compound was added to the 384-well plate using an Echo 655 Liquid Handler, with a maximum final concentration of 10 μM, 1:3 serial dilution, and in a total of 10 doses. Incubation was performed at 37° C., 5% CO2 for 6 days. The plate was taken out from the incubator and equilibrated at room temperature for 10 minutes. 20 μL of CTG (Promage G7572) was added to each well of the plate according to the platemap. The plate was centrifuged at 1000 rpm for 1 minute. The lysis of cells was induced by mixing on a shaker for 2 minutes. The plate was centrifuged at 1000 rpm for 1 minute. Incubation was performed at room temperature for 10 minutes to stabilize luminescence signals. Luminescence values were recorded by Envision (PerkinElmer 2105-0020). GraphPad 9.0 was used to fit the inhibition rate and compound concentration into a nonlinear regression curve (dose response-variable slope) to calculate GI50, inhibition rate={1−(A−B)/(C−B)}*100%, A=signal value of compound; B=average signal of blank control; C=average signal of negative control (wherein the negative control was 0.1% DMSO).

In the next assay the test system is NUGC-3 cells. The assay is described as follows: NUGC-3 cell proliferation assay (CTG). In kind it is cell-based, human. As to conditions: for GI50: 6 days, CTG; for Compound GI50 (nM)/Reference compound GI50 (nM): multiple ratio of GI50 of the compound to the reference compound. In outline: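 GI50 derived by variable-slope regression of percent inhibition (normalized to blank and 0.1% DMSO controls) from CTG luminescence. Compound was given as 10 threefold dilutions, highest final 10 μM, to overnight-seeded NUGC-3 cells (250/well) for 6 days, 37° C, 5% CO2.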

For assay [1], the target named is T1, p53 Y220C (Homo sapiens, UniProt P04637, Y220C).
T1 construct: a truncated mutant containing only amino acids 94-312 of p53; made in house; host or cells: E. coli
The assay is described as follows: DNA binding test (HTRF): binding of P53Y220C protein to DNA. In kind it is biochemical. As to conditions: multiple ratio of EC50 of the compound to the reference compound, DNA binding test. Background: Time-resolved FRET reads energy transfer from a long-lived donor to a nearby acceptor.

Assay [2] addresses T2, p53 Y220C (Homo sapiens, UniProt P04637, P309S/R273H/Y220C).
T2 construct: a truncated mutant containing only amino acids 94-312 of p53; made in house; host or cells: E. coli
The description is as above. In kind it is biochemical. To be noted: HTRF, activation of p53 Y220C (aa 94-312) binding to biotin DNA.

Marks after values point to notes of the source that are not given here.

As for `CNC(=O)c1ccc(NCC#Cc2nc3c(N[C@@H]4CCN(C)C[C@@H]4F)cccn3c2CC(F)(F)F)c(OC)c1` [Compound 5], the GI50 in the assay with BxPC-3 cells was < 1000 nM; in the assay on NUGC-3 cells (Homo sapiens, NUGC-3, 144 h), 1000 to 5000 nM. In addition, in the assay with NUGC-3 cells, the “Compound GI50 (nM)/Reference compound GI50 (nM)” value (“Compound GI50” for short) is reported as “B (B: GI50 of the reference compound < GI50 of the compound ≤ 3.0 * GI50 of the reference compound)”. In addition, at p53 Y220C [1], the “Compound EC50 (nM)/Reference compound EC50 (nM)” value (“Compound EC50” for short) is reported as “B (B: EC50 of the reference compound<EC50 of the compound≤3.0*EC50 of the reference compound)”. Moreover, at p53 Y220C [2], the EC50 was < 100 nM.

Regarding `COc1cc(C(=O)NC2CC2)ccc1NCC#Cc1nc2c(NC3CC[C@@H](N4CC5(COC5)C4)C[C@@H]3F)cccn2c1CC(F)(F)F` (stereo partly drawn) [Compound 54], in the assay with NUGC-3 cells (Homo sapiens, NUGC-3, 144 h), the GI50 was < 1000 nM. In addition, the “Compound GI50” value in the assay on NUGC-3 cells is “C (C: GI50 of the compound ≥ 3 * GI50 of the reference compound)”. For the same compound, the “Compound EC50” value at p53 Y220C [1] is recorded as “B (B: EC50 of the reference compound<EC50 of the compound≤3.0*EC50 of the reference compound)”. In addition, on p53 Y220C [2], the EC50 was < 100 nM.

Take `[2H]C([2H])([2H])NC(=O)c1ccc(NCC#Cc2cc3c(NC4CCC(N5CC6(COC6)C5)CC4F)cccn3c2CC(F)(F)F)c(OC([2H])([2H])[2H])c1` (single isomer, unassigned) [Compound 74d]: in the assay on NUGC-3 cells (Homo sapiens, NUGC-3, 144 h), the GI50 is < 1000 nM. For the same compound, in the assay on NUGC-3 cells, the “Compound GI50” value is given as “A (A: GI50 of the compound ≤ GI50 of the reference compound)”. Further, the “Compound EC50” value on p53 Y220C [1] was “A (A: EC50 of the compound≤EC50 of the reference compound)”. Further, the EC50 on p53 Y220C [2] is < 100 nM.

Turning to `CNC(=O)c1ccc(NCC#Cc2nc3c(NC4CCC(N5CC6(COC6)C5)CC4F)cccn3c2CC(F)(F)F)c(OC)c1` (single isomer, unassigned) [Compound 35-6i], the GI50 in the assay with BxPC-3 cells and in the assay on NUGC-3 cells was < 1000 nM throughout. Besides, in the assay on NUGC-3 cells, the “Compound GI50” value is reported as “A (A: GI50 of the compound ≤ GI50 of the reference compound)”. At p53 Y220C [1], the “Compound EC50” value is “B (B: EC50 of the reference compound<EC50 of the compound≤3.0*EC50 of the reference compound)”. Besides, on p53 Y220C [2], the EC50 is < 100 nM.

For `[2H]C([2H])([2H])NC(=O)c1ccc(NCC#Cc2nc3c(NC4CC[C@@H](N5CC6(COC6)C5)C[C@@H]4F)cccn3c2CC(F)(F)F)c(OC([2H])([2H])[2H])c1` (stereo partly drawn) [Compound 64], the GI50 was < 1000 nM in the assay on BxPC-3 cells and < 1000 nM in the assay with NUGC-3 cells (Homo sapiens, NUGC-3, 144 h). In addition, the “Compound GI50” value in the assay with NUGC-3 cells was “B (B: GI50 of the reference compound < GI50 of the compound ≤ 3.0 * GI50 of the reference compound)”. Also, the “Compound EC50” value at p53 Y220C [1] was “B (B: EC50 of the reference compound<EC50 of the compound≤3.0*EC50 of the reference compound)”. Further, at p53 Y220C [2], the EC50 is < 100 nM.

Consider `CNC(=O)c1ccc(NCC#Cc2nc3c(NC4CC[C@@H](N5CC6(COC6)C5)C[C@@H]4F)cccn3c2CC(F)(F)F)c(OCF)c1` (stereo partly drawn) [Compound 58], for which the GI50 was < 1000 nM with BxPC-3 cells and < 1000 nM in the assay with NUGC-3 cells (Homo sapiens, NUGC-3, 144 h). For the same compound, in the assay with NUGC-3 cells, the “Compound GI50” value was “B (B: GI50 of the reference compound < GI50 of the compound ≤ 3.0 * GI50 of the reference compound)”. For the same compound, the “Compound EC50” value on p53 Y220C [1] was “B (B: EC50 of the reference compound<EC50 of the compound≤3.0*EC50 of the reference compound)”.

Broadly, the GI50 is the concentration that inhibits growth by half. Read a high GI50 as lower sensitivity of the cells. Broadly, the EC50 is the concentration needed to bring the measured effect to its halfway point. Read a high EC50 as a less potent agent.
